Measurements: PubChem BioAssay (NCI)
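The compound was tested at five concentrations on cells cultured in 96-well plates, with a 48-hour exposure period. TGI marks complete inhibition of growth.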

What was measured:
Assay in all cases: DTP human tumour cell line panel, 48 h
OVCAR-8 ovarian = system: OVCAR-8 ovarian
RXF 393 renal = system: RXF 393 renal
SF-268 CNS = system: SF-268 CNS
NCI/ADR-RES ovarian = system: NCI/ADR-RES ovarian
MCF7 breast = system: MCF7 breast
SF-539 CNS = system: SF-539 CNS
A549 NSCLC = system: A549 NSCLC
CAKI-1 renal = system: CAKI-1 renal
A498 renal = system: A498 renal
HCT-116 colon = system: HCT-116 colon
OVCAR-5 ovarian = system: OVCAR-5 ovarian
MDA-N = system: MDA-N
MOLT-4 leukemia = system: MOLT-4 leukemia
SK-MEL-5 melanoma = system: SK-MEL-5 melanoma
RPMI-8226 leukemia = system: RPMI-8226 leukemia
HOP-92 NSCLC = system: HOP-92 NSCLC
COLO 205 colon = system: COLO 205 colon

SMILES | TGI (OVCAR-8 ovarian) [µM] | TGI (RXF 393 renal) [µM] | TGI (SF-268 CNS) [µM] | TGI (NCI/ADR-RES ovarian) [µM] | TGI (MCF7 breast) [µM] | TGI (SF-539 CNS) [µM] | TGI (A549 NSCLC) [µM] | TGI (CAKI-1 renal) [µM] | TGI (A498 renal) [µM] | TGI (HCT-116 colon) [µM] | TGI (OVCAR-5 ovarian) [µM] | TGI (MDA-N) [µM] | TGI (MOLT-4 leukemia) [µM] | TGI (SK-MEL-5 melanoma) [µM] | TGI (RPMI-8226 leukemia) [µM] | TGI (HOP-92 NSCLC) [µM] | TGI (COLO 205 colon) [µM]
COCN1C(=O)[C@@H]2CCCN2C(=O)c2cc(OC)c(Cc3ccccc3)cc21 | > 100 | > 100 | > 100 | > 100 | > 100 | > 100 | > 100 | > 100 | > 100 | > 100 | > 100 | > 100 |  |  |  |  | 
O=C(CC(NC(=O)OCc1ccccc1)C(=O)NC1Cc2ccccc2C1=O)OCc1ccccc1 (stereo not given) | > 100 | > 100 | > 100 | > 100 | > 100 | > 100 | > 100 | > 100 |  |  | > 100 | > 100 | > 100 | > 100 | > 100 |  | 
C/C(=N/NC(=O)c1ccccc1S(N)(=O)=O)C(CN1CCCCC1)C(C1=C(O)C2C=CC=CC2OC1=O)c1ccccc1 (stereo not given) | > 100 | 68.4 | > 100 |  |  | > 100 | > 100 | > 100 | > 100 | > 100 | > 100 |  |  | > 100 | 79 | 77.1 | 41.3
CC(=O)OCC1OC(N2C(=O)[C@@H](Oc3ccccc3)[C@H]2/C=C/c2ccccc2)C(OC(C)=O)C(OC(C)=O)C1OC(C)=O (stereo not given in full) | > 100 | > 100 | > 100 |  |  | > 100 | > 100 |  | > 100 | > 100 | > 100 |  | > 100 | > 100 | > 100 | > 100 | > 100
OCC(O)COCn1cc(Cn2ncc3c(SCc4ccccc4)ncnc32)nn1 (stereo not given) | > 100 |  | > 100 | > 100 | > 100 | > 100 | > 100 | > 100 | > 100 | > 100 | > 100 |  | > 100 | > 100 | > 100 | > 100 | > 100
CC(C)OC(=O)NCCn1cc(-c2ccccc2)nn1 | > 100 |  | > 100 | > 100 | > 100 | > 100 | > 100 | > 100 |  | > 100 | > 100 |  | > 100 | > 100 | > 100 | > 100 | > 100
CCCCCCCCCCCCCCCCOCC(COP(=O)(O)OCC1OC(n2cc(CC)c(=O)[nH]c2=O)CC1O)OC(=O)CCCCCCCCCCCCCCC (stereo not given) | > 100 | > 100 | > 100 | > 100 | > 100 | > 100 | > 100 | > 100 | > 100 | > 100 | > 100 |  | > 100 |  | > 100 | > 100 | > 100
C=CCOC(=O)Cn1cnc2c(N)ncnc21 | > 100 |  | > 100 | > 100 | > 100 | > 100 | > 100 | > 100 | > 100 | > 100 |  | > 100 | > 100 | > 100 | > 100 |  | > 100
CC1(OCc2ccccc2)C(=O)N2C1NCC2(C)C (stereo not given) | > 100 | > 100 | > 100 |  |  | > 100 | > 100 |  | > 100 | > 100 |  |  | > 100 | > 100 | > 100 |  | > 100
N#CC(C#N)=c1c(=O)c2c3ccccc3cc3cccc1c32 |  |  | > 100 | > 100 |  |  | > 100 | > 100 | > 100 | > 100 | > 100 | > 100 | > 100 | > 100 | > 100 | > 100 | > 100
Cc1nnc2n1N=C(c1cc(F)c(Cl)cc1Cl)/C(=C/c1ccc(-c3ccc([N+](=O)[O-])cc3)o1)S2 | > 100 |  | > 100 | > 100 | > 100 |  | > 100 | > 100 | > 100 | > 100 | > 100 |  | > 100 | > 100 | > 100 | > 100 | > 100
Cc1nc2ccc(F)cc2c2c1CCS2 | > 100 | 73.9 | > 100 | > 100 | > 100 | > 100 | > 100 |  | > 100 | > 100 |  |  | > 100 | > 100 | > 100 | > 100 | > 100
COc1ccc(N2C(=O)c3cc([N+](=O)[O-])cnc3S2(=O)=O)cc1 | > 100 | > 100 | > 100 | > 100 |  |  | > 100 |  |  | > 100 | > 100 | > 100 | > 100 |  | > 100 | > 100 | > 100
CN(Cc1cnc2nc(N)nc(N)c2n1)c1ccc(C(=O)NCCCS(=O)(=O)O)cc1 | > 100 |  | > 100 | > 100 | > 100 | > 100 | > 100 |  | > 100 | > 100 | > 100 | > 100 | > 100 | > 100 | > 100 |  | > 100
CCN(CC)C(=O)CCn1ccc(=O)[nH]c1=O | > 100 | > 100 | > 100 |  |  | > 100 | > 100 |  |  | > 100 | > 100 |  | > 100 | > 100 | > 100 |  | > 100
C=C(Br)C(C)(Cl)CCC(Br)C(C)(C)Br (stereo not given) | > 100 | > 100 |  |  |  | > 100 | > 100 | > 100 |  | > 100 | > 100 |  | 83.1 | > 100 | 67 | > 100 | > 100
